Results as given in the kinase profiling compilation of Christmann-Franck et al. (2016).

Tests used:
Experiment in all cases: KINOMEscan competition binding
Conditions in all cases: compound 10.0 µM
ACVRL1 (human) = ACVRL1 (human) (UniProt P37023)
BMPR1A (human) = BMPR1A (human) (UniProt P36894)
BRSK2 (human) = BRSK2 (human) (UniProt Q8IWQ3)
BTK (human) = BTK (human) (UniProt Q06187)
CDC42BPB (human) = CDC42BPB (human) (UniProt Q9Y5S2)
CDK3 (human) = CDK3 (human) (UniProt Q00526)
CDK7 (human) = CDK7 (human) (UniProt P50613)
CDK8 (human) = CDK8 (human) (UniProt P49336)
DDR1 (human) = DDR1 (human) (UniProt Q08345)
DYRK2 (human) = DYRK2 (human) (UniProt Q92630)
EGFR (human) = EGFR (human) (UniProt P00533)
EPHA6 (human) = EPHA6 (human) (UniProt Q9UF33)
ERN1 (human) = ERN1 (human) (UniProt O75460)
FGFR3 (human) = FGFR3 (human) (UniProt P22607)
FYN (human) = FYN (human) (UniProt P06241)
GAK (human) = GAK (human) (UniProt O14976)
HIPK1 (human) = HIPK1 (human) (UniProt Q86Z02)
ITK (human) = ITK (human) (UniProt Q08881)
KIT (human) = KIT (human) (UniProt P10721)
LTK (human) = LTK (human) (UniProt P29376)
LYN (human) = LYN (human) (UniProt P07948)
MAP4K3 (human) = MAP4K3 (human) (UniProt Q8IVH8)
MAPK9 (human) = MAPK9 (human) (UniProt P45984)
MAPKAPK2 (human) = MAPKAPK2 (human) (UniProt P49137)
MARK2 (human) = MARK2 (human) (UniProt Q7KZI7)
MET (human) = MET (human) (UniProt P08581)
MKNK1 (human) = MKNK1 (human) (UniProt Q9BUB5)
NEK7 (human) = NEK7 (human) (UniProt Q8TDX7)
NLK (human) = NLK (human) (UniProt Q9UBE8)
NUAK2 (human) = NUAK2 (human) (UniProt Q9H093)
PIM1 (human) = PIM1 (human) (UniProt P11309)
PIP4K2B (human) = PIP4K2B (human) (UniProt P78356)
PRKACA (human) = PRKACA (human) (UniProt P17612)
PRPF4B (human) = PRPF4B (human) (UniProt Q13523)
RIOK3 (human) = RIOK3 (human) (UniProt O14730)
RPS6KA1 KD1 (human) = RPS6KA1 KD1 (human) (UniProt Q15418)
[1] = molecular target: TYK2 JH2 pseudokinase (human) (UniProt P29597)
ULK3 (human) = ULK3 (human) (UniProt Q6PHR2)
CASK (human) = CASK (human) (UniProt O14936)
RPS6KB1 (human) = RPS6KB1 (human) (UniProt P23443)

Sequence of NEK7 (human) (Q8TDX7 whole entry, looked up): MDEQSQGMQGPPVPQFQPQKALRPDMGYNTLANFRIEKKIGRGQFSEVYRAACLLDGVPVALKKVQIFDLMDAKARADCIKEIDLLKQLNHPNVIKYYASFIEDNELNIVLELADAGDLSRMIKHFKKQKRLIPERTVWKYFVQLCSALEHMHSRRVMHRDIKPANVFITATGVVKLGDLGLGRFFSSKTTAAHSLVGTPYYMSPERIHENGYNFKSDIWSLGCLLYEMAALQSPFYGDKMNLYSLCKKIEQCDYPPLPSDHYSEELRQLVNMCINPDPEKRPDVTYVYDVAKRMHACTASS
Sequence of CDK7 (human) (P50613 whole entry, looked up): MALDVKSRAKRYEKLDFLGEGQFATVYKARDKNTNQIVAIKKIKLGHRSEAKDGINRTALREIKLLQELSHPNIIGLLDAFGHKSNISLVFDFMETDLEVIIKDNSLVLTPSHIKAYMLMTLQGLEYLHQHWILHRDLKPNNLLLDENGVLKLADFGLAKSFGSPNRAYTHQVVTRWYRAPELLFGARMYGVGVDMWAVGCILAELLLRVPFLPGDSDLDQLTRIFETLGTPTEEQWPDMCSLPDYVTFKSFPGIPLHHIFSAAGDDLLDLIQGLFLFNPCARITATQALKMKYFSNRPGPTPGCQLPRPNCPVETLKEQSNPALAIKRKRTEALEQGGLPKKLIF
Sequence of ERN1 (human) (O75460 whole entry, looked up): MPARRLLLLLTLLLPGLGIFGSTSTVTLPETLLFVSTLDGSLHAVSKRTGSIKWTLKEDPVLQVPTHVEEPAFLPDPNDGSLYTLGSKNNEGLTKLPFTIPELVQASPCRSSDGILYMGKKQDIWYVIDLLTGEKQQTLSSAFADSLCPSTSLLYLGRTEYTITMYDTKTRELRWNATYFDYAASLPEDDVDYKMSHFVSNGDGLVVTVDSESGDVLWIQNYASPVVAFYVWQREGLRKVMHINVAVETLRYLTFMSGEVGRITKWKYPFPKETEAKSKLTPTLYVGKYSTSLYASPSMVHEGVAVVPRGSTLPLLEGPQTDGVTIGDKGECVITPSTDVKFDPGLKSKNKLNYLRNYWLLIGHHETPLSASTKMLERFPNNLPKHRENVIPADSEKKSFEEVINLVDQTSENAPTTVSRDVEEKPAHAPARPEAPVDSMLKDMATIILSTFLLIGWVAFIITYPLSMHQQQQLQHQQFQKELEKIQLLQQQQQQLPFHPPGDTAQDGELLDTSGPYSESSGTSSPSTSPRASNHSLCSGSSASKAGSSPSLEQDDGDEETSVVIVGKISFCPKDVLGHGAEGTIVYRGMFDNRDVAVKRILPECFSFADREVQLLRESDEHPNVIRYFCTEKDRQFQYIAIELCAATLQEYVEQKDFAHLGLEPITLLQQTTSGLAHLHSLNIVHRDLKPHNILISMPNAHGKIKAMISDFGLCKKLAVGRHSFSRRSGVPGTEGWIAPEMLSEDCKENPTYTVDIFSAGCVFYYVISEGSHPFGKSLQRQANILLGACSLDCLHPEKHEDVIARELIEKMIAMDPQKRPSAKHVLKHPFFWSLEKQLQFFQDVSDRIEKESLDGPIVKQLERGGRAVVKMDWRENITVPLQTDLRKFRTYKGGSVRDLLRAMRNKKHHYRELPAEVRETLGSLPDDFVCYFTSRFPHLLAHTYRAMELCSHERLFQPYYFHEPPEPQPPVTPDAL
Sequence of MAP4K3 (human) (Q8IVH8 whole entry, looked up): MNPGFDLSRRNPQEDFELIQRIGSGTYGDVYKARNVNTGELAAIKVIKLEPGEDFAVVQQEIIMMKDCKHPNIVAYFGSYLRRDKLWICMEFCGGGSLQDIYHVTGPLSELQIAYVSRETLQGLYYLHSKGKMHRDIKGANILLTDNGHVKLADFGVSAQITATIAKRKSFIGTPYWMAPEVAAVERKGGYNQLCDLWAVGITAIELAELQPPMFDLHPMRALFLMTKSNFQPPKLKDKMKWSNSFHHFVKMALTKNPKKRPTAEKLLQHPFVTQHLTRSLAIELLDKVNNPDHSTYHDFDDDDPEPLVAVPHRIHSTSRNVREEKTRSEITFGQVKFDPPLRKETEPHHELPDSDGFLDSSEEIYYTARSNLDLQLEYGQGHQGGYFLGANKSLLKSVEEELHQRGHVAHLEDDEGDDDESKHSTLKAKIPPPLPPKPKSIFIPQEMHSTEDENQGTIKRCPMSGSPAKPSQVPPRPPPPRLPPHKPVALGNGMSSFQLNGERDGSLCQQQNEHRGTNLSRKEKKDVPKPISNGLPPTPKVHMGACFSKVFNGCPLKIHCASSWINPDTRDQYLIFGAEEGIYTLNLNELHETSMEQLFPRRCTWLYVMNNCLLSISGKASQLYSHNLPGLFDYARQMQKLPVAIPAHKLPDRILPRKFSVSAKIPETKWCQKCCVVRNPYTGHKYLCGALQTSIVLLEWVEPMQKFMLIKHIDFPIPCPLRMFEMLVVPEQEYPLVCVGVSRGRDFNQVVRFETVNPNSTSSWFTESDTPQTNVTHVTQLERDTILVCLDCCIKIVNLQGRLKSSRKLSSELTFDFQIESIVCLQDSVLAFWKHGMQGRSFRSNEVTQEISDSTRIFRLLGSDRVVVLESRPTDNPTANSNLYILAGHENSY
Sequence of FYN (human) (P06241 whole entry, looked up): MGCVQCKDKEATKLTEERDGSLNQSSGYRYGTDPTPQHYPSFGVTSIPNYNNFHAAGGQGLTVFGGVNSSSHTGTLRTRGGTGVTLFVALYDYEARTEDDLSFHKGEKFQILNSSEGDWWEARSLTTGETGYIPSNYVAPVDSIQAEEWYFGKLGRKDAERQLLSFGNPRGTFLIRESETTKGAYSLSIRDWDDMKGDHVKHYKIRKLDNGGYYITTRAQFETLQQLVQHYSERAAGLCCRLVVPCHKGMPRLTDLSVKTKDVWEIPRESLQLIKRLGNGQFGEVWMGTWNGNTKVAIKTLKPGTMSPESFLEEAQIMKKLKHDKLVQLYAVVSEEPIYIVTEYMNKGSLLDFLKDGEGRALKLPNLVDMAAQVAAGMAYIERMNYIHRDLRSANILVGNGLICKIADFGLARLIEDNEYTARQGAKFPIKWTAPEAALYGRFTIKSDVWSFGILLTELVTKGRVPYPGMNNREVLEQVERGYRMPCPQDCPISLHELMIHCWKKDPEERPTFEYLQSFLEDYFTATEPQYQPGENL
Sequence of BMPR1A (human) (P36894 whole entry, looked up): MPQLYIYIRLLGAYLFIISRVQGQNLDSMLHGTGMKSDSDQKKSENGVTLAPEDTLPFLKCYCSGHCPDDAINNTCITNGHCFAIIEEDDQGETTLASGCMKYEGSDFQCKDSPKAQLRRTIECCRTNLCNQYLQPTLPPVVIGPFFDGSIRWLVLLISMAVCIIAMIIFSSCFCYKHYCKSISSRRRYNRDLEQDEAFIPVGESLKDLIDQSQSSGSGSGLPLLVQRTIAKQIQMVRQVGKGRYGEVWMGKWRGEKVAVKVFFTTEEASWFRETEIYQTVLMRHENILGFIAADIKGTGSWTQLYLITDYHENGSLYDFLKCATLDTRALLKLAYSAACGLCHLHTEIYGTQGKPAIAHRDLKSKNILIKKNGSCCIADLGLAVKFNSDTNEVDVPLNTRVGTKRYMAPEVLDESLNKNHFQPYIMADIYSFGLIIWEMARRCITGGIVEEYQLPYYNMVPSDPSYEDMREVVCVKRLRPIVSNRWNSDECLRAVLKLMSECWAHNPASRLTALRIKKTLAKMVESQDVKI
Sequence of KIT (human) (P10721 whole entry, looked up): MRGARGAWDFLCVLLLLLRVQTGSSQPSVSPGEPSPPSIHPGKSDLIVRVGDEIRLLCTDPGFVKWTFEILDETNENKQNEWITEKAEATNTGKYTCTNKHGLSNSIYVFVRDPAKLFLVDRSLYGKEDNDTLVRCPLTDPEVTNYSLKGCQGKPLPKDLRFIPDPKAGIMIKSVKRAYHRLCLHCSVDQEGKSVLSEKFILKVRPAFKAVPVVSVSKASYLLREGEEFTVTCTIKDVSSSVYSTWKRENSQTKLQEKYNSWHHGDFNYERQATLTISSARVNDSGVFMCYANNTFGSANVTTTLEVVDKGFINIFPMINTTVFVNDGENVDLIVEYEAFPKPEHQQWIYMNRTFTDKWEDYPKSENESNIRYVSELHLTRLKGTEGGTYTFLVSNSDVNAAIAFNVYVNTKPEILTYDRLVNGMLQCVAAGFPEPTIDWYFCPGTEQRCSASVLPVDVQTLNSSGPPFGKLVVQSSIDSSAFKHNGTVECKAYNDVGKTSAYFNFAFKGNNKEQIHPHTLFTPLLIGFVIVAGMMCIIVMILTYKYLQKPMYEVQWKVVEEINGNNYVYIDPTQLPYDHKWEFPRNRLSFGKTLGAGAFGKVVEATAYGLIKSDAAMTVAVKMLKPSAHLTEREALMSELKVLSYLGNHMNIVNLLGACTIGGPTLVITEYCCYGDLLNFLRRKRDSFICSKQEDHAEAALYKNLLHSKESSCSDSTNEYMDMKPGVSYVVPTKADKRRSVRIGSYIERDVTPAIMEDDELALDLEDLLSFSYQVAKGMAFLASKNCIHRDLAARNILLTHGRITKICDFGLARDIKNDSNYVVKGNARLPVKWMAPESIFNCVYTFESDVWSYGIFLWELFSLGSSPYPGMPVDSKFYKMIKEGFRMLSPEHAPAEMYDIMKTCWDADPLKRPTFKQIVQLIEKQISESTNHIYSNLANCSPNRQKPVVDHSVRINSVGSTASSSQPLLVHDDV
Sequence of MAPK9 (human) (P45984 whole entry, looked up): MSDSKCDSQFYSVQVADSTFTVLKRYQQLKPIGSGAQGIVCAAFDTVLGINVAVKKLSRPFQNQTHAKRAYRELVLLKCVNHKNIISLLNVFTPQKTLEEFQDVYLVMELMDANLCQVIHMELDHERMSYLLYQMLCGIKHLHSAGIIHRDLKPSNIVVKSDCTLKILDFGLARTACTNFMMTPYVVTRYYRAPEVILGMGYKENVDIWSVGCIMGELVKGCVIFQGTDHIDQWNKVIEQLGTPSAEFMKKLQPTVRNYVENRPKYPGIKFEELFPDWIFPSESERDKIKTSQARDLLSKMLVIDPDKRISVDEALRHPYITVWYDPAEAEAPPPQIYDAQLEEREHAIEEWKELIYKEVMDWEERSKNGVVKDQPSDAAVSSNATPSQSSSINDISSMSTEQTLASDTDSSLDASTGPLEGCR

Cc1cn(-c2cc(C(=O)Nc3ccc(C)c(NC(=O)c4ccno4)c3)cc(C(F)(F)F)c2)cn1
kinase still bound, per cent of control (ACVRL1 (human)): 100%
kinase still bound, per cent of control (BMPR1A (human)): 100%
kinase still bound, per cent of control (BRSK2 (human)): 100%
kinase still bound, per cent of control (BTK (human)): 100%
kinase still bound, per cent of control (CDC42BPB (human)): 100%
kinase still bound, per cent of control (CDK3 (human)): 100%
kinase still bound, per cent of control (CDK7 (human)): 100%
kinase still bound, per cent of control (CDK8 (human)): 100%
kinase still bound, per cent of control (DDR1 (human)): 0.1%
kinase still bound, per cent of control (DYRK2 (human)): 100%
kinase still bound, per cent of control (EGFR (human)): 100%
kinase still bound, per cent of control (EPHA6 (human)): 100%
kinase still bound, per cent of control (ERN1 (human)): 100%
kinase still bound, per cent of control (FGFR3 (human)): 100%
kinase still bound, per cent of control (FYN (human)): 9.6%
kinase still bound, per cent of control (GAK (human)): 100%
kinase still bound, per cent of control (HIPK1 (human)): 100%
kinase still bound, per cent of control (ITK (human)): 100%
kinase still bound, per cent of control (KIT (human)): 0%
kinase still bound, per cent of control (LTK (human)): 100%
kinase still bound, per cent of control (LYN (human)): 4.8%
kinase still bound, per cent of control (MAP4K3 (human)): 100%
kinase still bound, per cent of control (MAPK9 (human)): 100%
kinase still bound, per cent of control (MAPKAPK2 (human)): 100%
kinase still bound, per cent of control (MARK2 (human)): 100%
kinase still bound, per cent of control (MET (human)): 100%
kinase still bound, per cent of control (MKNK1 (human)): 100%
kinase still bound, per cent of control (NEK7 (human)): 100%
kinase still bound, per cent of control (NLK (human)): 100%
kinase still bound, per cent of control (NUAK2 (human)): 100%
kinase still bound, per cent of control (PIM1 (human)): 100%
kinase still bound, per cent of control (PIP4K2B (human)): 100%
kinase still bound, per cent of control (PRKACA (human)): 100%
kinase still bound, per cent of control (PRPF4B (human)): 100%
kinase still bound, per cent of control (RIOK3 (human)): 100%
kinase still bound, per cent of control (RPS6KA1 KD1 (human)): 100%
kinase still bound, per cent of control [1]: 100%
kinase still bound, per cent of control (ULK3 (human)): 100%

CCOc1cc(N2CCC(O)CC2)ccc1Nc1ncc2c(n1)N(C)c1ccccc1C(=O)N2C
kinase still bound, per cent of control (ACVRL1 (human)): 100%
kinase still bound, per cent of control (BMPR1A (human)): 100%
kinase still bound, per cent of control (BRSK2 (human)): 100%
kinase still bound, per cent of control (BTK (human)): 100%
kinase still bound, per cent of control (CDC42BPB (human)): 100%
kinase still bound, per cent of control (CDK3 (human)): 100%
kinase still bound, per cent of control (CDK7 (human)): 100%
kinase still bound, per cent of control (CDK8 (human)): 100%
kinase still bound, per cent of control (DDR1 (human)): 100%
kinase still bound, per cent of control (DYRK2 (human)): 100%
kinase still bound, per cent of control (EGFR (human)): 100%
kinase still bound, per cent of control (EPHA6 (human)): 100%
kinase still bound, per cent of control (ERN1 (human)): 100%
kinase still bound, per cent of control (FGFR3 (human)): 100%
kinase still bound, per cent of control (FYN (human)): 100%
kinase still bound, per cent of control (GAK (human)): 31%
kinase still bound, per cent of control (HIPK1 (human)): 100%
kinase still bound, per cent of control (ITK (human)): 100%
kinase still bound, per cent of control (KIT (human)): 100%
kinase still bound, per cent of control (LTK (human)): 100%
kinase still bound, per cent of control (LYN (human)): 100%
kinase still bound, per cent of control (MAP4K3 (human)): 100%
kinase still bound, per cent of control (MAPK9 (human)): 100%
kinase still bound, per cent of control (MAPKAPK2 (human)): 100%
kinase still bound, per cent of control (MARK2 (human)): 100%
kinase still bound, per cent of control (MET (human)): 100%
kinase still bound, per cent of control (MKNK1 (human)): 100%
kinase still bound, per cent of control (NEK7 (human)): 100%
kinase still bound, per cent of control (NLK (human)): 100%
kinase still bound, per cent of control (NUAK2 (human)): 100%
kinase still bound, per cent of control (PIM1 (human)): 100%
kinase still bound, per cent of control (PIP4K2B (human)): 100%
kinase still bound, per cent of control (PRKACA (human)): 100%
kinase still bound, per cent of control (PRPF4B (human)): 100%
kinase still bound, per cent of control (RIOK3 (human)): 100%
kinase still bound, per cent of control (RPS6KA1 KD1 (human)): 100%
kinase still bound, per cent of control [1]: 100%
kinase still bound, per cent of control (ULK3 (human)): 100%

CC(=O)c1c(C)c2cnc(Nc3ccc(N4CCNCC4)cn3)nc2n(C2CCCC2)c1=O
kinase still bound, per cent of control (BMPR1A (human)): 42%
kinase still bound, per cent of control (BRSK2 (human)): 80%
kinase still bound, per cent of control (BTK (human)): 13%
kinase still bound, per cent of control (CASK (human)): 60%
kinase still bound, per cent of control (CDC42BPB (human)): 91%
kinase still bound, per cent of control (CDK3 (human)): 74%
kinase still bound, per cent of control (CDK7 (human)): 12%
kinase still bound, per cent of control (DDR1 (human)): 60%
kinase still bound, per cent of control (DYRK2 (human)): 5.5%
kinase still bound, per cent of control (EPHA6 (human)): 96%
kinase still bound, per cent of control (ERN1 (human)): 34%
kinase still bound, per cent of control (FYN (human)): 100%
kinase still bound, per cent of control (GAK (human)): 4.4%
kinase still bound, per cent of control (HIPK1 (human)): 0.1%
kinase still bound, per cent of control (ITK (human)): 71%
kinase still bound, per cent of control (KIT (human)): 60%
kinase still bound, per cent of control (MAP4K3 (human)): 20%
kinase still bound, per cent of control (MAPK9 (human)): 0.5%
kinase still bound, per cent of control (MARK2 (human)): 28%
kinase still bound, per cent of control (MET (human)): 36%
kinase still bound, per cent of control (NEK7 (human)): 60%
kinase still bound, per cent of control (NUAK2 (human)): 1%
kinase still bound, per cent of control (PIP4K2B (human)): 18%
kinase still bound, per cent of control (PRKACA (human)): 100%
kinase still bound, per cent of control (PRPF4B (human)): 78%
kinase still bound, per cent of control (RIOK3 (human)): 64%
kinase still bound, per cent of control (RPS6KA1 KD1 (human)): 12%
kinase still bound, per cent of control (RPS6KB1 (human)): 36%
kinase still bound, per cent of control (ULK3 (human)): 40%
